The record followed here is patent US8349829B2, “[4-(1-amino-ethyl)-cyclohexyl]-methyl-amine and [6-(1-amino-ethyl)-tetrahydro-pyran-3-yl]-methyl-amine derivatives as antibacterials” (Actelion Pharmaceuticals Ltd., priority 2008, dated 2013).

For one assay, the system named is E. coli 25922. The assay is described as follows: MIC by microdilution in cation-adjusted Mueller-Hinton Broth (NCCLS). The class given is cell-based. The note with it: for MIC: Escherichia coli, 25922, pH 7.2-7.3; for MIC for E. coli 25922: pH 7.2-7.3. How it is done:
(§1) These assays have been performed following the description given in “Methods for dilution Antimicrobial Susceptibility Tests for Bacteria that Grow Aerobically, 4th ed.; Approved standard: NCCLS Document M7-A4; National Committee for Clinical Laboratory Standards: Villanova, Pa., USA, 1997”. Minimal inhibitory concentrations (MICs; mg/l) were determined in cation-adjusted Mueller-Hinton Broth (BBL) by a microdilution method following NCCLS guidelines (National Committee for Clinical Laboratory Standards. Methods for Dilution Antimicrobial Susceptibility). The pH of the test medium was 7.2-7.3. All Example compounds were tested against several Gram positive and Gram negative bacteria such as S. aureus, E. faecalis, S. pneumoniae, M catarrhalis, A. baumanii, E. coli or P. aeruginosa.
A general note: In broth dilution the organism is exposed to a series of concentrations in liquid medium.

Another assay has as its system P. aeruginosa 27853. Described as above. The class given is cell-based. The note with it: for MIC: Pseudomonas aeruginosa, 27853, pH 7.2-7.3; for MIC for P. aeruginosa 27853: pH 7.2-7.3. The protocol: as §1

Converted amounts (≈) assume the structure as drawn.

As to `COc1ccc2ccc(=O)n(CC(N)[C@H]3CC[C@H](NCc4ccc5c(n4)NC(=O)CS5)CC3)c2c1` (mixture of isomers) [Ref. Ex. 1, rac-6-(trans-{4-[1-amino-2-(7-methoxy-2-oxo-2H-quinolin-1-yl)-ethyl]-cyclohexylamino}-methyl)-4H-pyrido[3,2-b][1,4]thiazin-3-one], the minimum inhibitory concentration (MIC) against E. coli 25922 worked out at 0.25 µg/mL (≈ 0.506 µM); with P. aeruginosa 27853, 0.5 µg/mL (≈ 1.01 µM).

Regarding `COc1ccc2ccc(=O)n(CC(N)[C@H]3CC[C@H](NCc4ccc5c(n4)NC(=O)CO5)CC3)c2c1` (mixture of isomers) [Ref. Ex. 2, rac-6-(trans-{4-[1-amino-2-(7-methoxy-2-oxo-2H-quinolin-1-yl)-ethyl]-cyclohexylamino}-methyl)-4H-pyrido[3,2-b][1,4]oxazin-3-one], the MIC with E. coli 25922 and against P. aeruginosa 27853 was 0.5 µg/mL (≈ 1.05 µM) each time.

As for `COc1ccc2ccc(=O)n(C[C@H](N)[C@H]3CC[C@H](NCc4ccc5c(n4)NC(=O)CS5)CC3)c2c1` [Example 1, 6-(trans-{4-[(1R)-1-amino-2-(7-methoxy-2-oxo-2H-quinolin-1-yl)-ethyl]-cyclohexylamino}-methyl)-4H-pyrido[3,2-b][1,4]thiazin-3-one], the MIC against E. coli 25922 is 0.063 µg/mL (≈ 0.128 µM); against P. aeruginosa 27853, 0.25 µg/mL (≈ 0.506 µM).

For the molecule `COc1ccc2ccc(=O)n(C[C@H](N)[C@H]3CC[C@H](NCc4ccc5c(n4)NC(=O)CO5)CC3)c2c1` [Example 2, 6-(trans-{4-[(1R)-1-amino-2-(7-methoxy-2-oxo-2H-quinolin-1-yl)-ethyl]-cyclohexylamino}-methyl)-4H-pyrido[3,2-b][1,4]oxazin-3-one], the minimum inhibitory concentration (MIC) with E. coli 25922 and with P. aeruginosa 27853 was 0.25 µg/mL (≈ 0.523 µM) in each case.

`COc1ccc2ccc(=O)n(C[C@H](N)[C@@H]3CC[C@@H](NCc4ccc5c(n4)NC(=O)CO5)CO3)c2c1` [Example 3, 6-({(3R,6S)-6-[(1S)-1-amino-2-(7-methoxy-2-oxo-2H-quinolin-1-yl)-ethyl]-tetrahydro-pyran-3-ylamino}-methyl)-4H-pyrido[3,2-b][1,4]oxazin-3-one]: the minimal inhibitory concentration (MIC) stood at 0.25 µg/mL (≈ 0.521 µM) against E. coli 25922 and 4 µg/mL (≈ 8.34 µM) in the assay on P. aeruginosa 27853.

Take `COc1ccc2ccc(=O)n(C[C@H](N)[C@@H]3CC[C@@H](NC/C=C/c4cc(F)ccc4F)CO3)c2c1` [Example 4, 1-((2S)-2-amino-2-{(2S,5R)-5-[(E)-3-(2,5-difluoro-phenyl)-allylamino]-tetrahydro-pyran-2-yl}-ethyl)-7-methoxy-1H-quinolin-2-one]: the results for the MIC against E. coli 25922 and against P. aeruginosa 27853 were 0.063 µg/mL (≈ 0.134 µM) and 2 µg/mL (≈ 4.26 µM), respectively.

Turning to `COc1ccc2ccc(=O)n(C[C@H](N)[C@@H]3CC[C@@H](NCc4ccc5c(n4)NC(=O)CS5)CO3)c2c1` [Example 5], in the assay on E. coli 25922, the “MIC for E. coli 25922” value came out at 0.125 µg/mL. Also, the “MIC for P. aeruginosa 27853” value in the assay on P. aeruginosa 27853 came out at 2 µg/mL.

For `COc1cnc2ccc(=O)n(C[C@H](N)[C@@H]3CC[C@@H](NCc4ccc5c(n4)NC(=O)CS5)CO3)c2c1` [Example 6, 6-({(3R,6S)-6-[(1S)-1-amino-2-(7-methoxy-2-oxo-2H-[1,5]naphthyridin-1-yl)-ethyl]-tetrahydro-pyran-3-ylamino}-methyl)-4H-pyrido[3,2-b][1,4]thiazin-3-one], the MIC was found to be 0.25 µg/mL (≈ 0.503 µM) against E. coli 25922 and 2 µg/mL (≈ 4.03 µM) against P. aeruginosa 27853.

Regarding `COc1cnc2ccc(=O)n(C[C@H](N)[C@@H]3CC[C@@H](NCc4ccc5c(n4)NC(=O)CO5)CO3)c2c1` [Example 7, 6-({(3R,6S)-6-[(1S)-1-amino-2-(7-methoxy-2-oxo-2H-[1,5]naphthyridin-1-yl)-ethyl]-tetrahydro-pyran-3-ylamino}-methyl)-4H-pyrido[3,2-b][1,4]oxazin-3-one], the MIC with E. coli 25922 is 1 µg/mL (≈ 2.08 µM); against P. aeruginosa 27853 it was 4 µg/mL (≈ 8.32 µM).

Regarding `COc1cnc2ccc(=O)n(C[C@H](N)[C@@H]3CC[C@@H](NCc4ccc5c(c4)NC(=O)CO5)CO3)c2c1` [Example 8, 6-({(3R,6S)-6-[(1S)-1-amino-2-(7-methoxy-2-oxo-2H-[1,5]naphthyridin-1-yl)-ethyl]-tetrahydro-pyran-3-ylamino}-methyl)-4H-benzo[1,4]oxazin-3-one], the MIC was found to be 1 µg/mL (≈ 2.09 µM) in the assay with E. coli 25922 and 4 µg/mL (≈ 8.34 µM) against P. aeruginosa 27853.

Turning to `COc1ccc2ncc(=O)n(C[C@H](N)[C@@H]3CC[C@@H](NCc4ccc5c(n4)NC(=O)CS5)CO3)c2c1` [Example 9, 6-({(3R,6S)-6-[(1S)-1-amino-2-(7-methoxy-2-oxo-2H-quinoxalin-1-yl)-ethyl]-tetrahydro-pyran-3-ylamino}-methyl)-4H-pyrido[3,2-b][1,4]thiazin-3-one], the values for the MIC in the assay on E. coli 25922 and in the assay with P. aeruginosa 27853 were 0.25 µg/mL (≈ 0.503 µM) and 16 µg/mL (≈ 32.2 µM), respectively.

For `COc1ccc2ccc(=O)n(C[C@H](N)[C@@H]3CC[C@@H](NCc4ccc5c(n4)NC(=O)CS5)CO3)c2n1` [Example 10, 6-({(3R,6S)-6-[(1S)-1-amino-2-(7-methoxy-2-oxo-2H-[1,8]naphthyridin-1-yl)-ethyl]-tetrahydro-pyran-3-ylamino}-methyl)-4H-pyrido[3,2-b][1,4]thiazin-3-one], the MIC was no more than 0.031 µg/mL in the assay on E. coli 25922 and 0.5 µg/mL (≈ 1.01 µM) in the assay on P. aeruginosa 27853.

As to `COc1ccc2ccc(=O)n(C[C@H](N)[C@@H]3CC[C@@H](NCc4ccc5c(n4)NC(=O)CO5)CO3)c2n1` [Example 11, 6-({(3R,6S)-6-[(1S)-1-amino-2-(7-methoxy-2-oxo-2H-[1,8]naphthyridin-1-yl)-ethyl]-tetrahydro-pyran-3-ylamino}-methyl)-4H-pyrido[3,2-b][1,4]oxazin-3-one], the values for the MIC in the assay on E. coli 25922 and against P. aeruginosa 27853 were 0.5 µg/mL (≈ 1.04 µM) and 8 µg/mL (≈ 16.6 µM), respectively.

As for `COc1ccc2ccc(=O)n(C[C@H](N)[C@@H]3CC[C@@H](NCc4cc5c(cn4)OCCO5)CO3)c2n1` [Example 12, 1-((1S)-2-amino-2-{(2S,5R)-5-[(2,3-dihydro-[1,4]dioxino[2,3-c]pyridin-7-ylmethyl)-amino]-tetrahydro-pyran-2-yl}-ethyl)-7-methoxy-1H-[1,8]naphthyridin-2-one], the “MIC for E. coli 25922” value against E. coli 25922 worked out at 0.063 µg/mL. Besides, the “MIC for P. aeruginosa 27853” value in the assay with P. aeruginosa 27853 was found to be 0.5 µg/mL.

Consider `COc1ccc2ccc(=O)n(CC(N)C3CCC(NC/C=C/c4cc(F)ccc4F)CC3)c2c1` [Example 13, 1-((1R)-2-amino-2-{4-[(E)-3-(2,5-difluoro-phenyl)-allylamino]-cyclohexyl}-ethyl)-7-methoxy-1H-quinolin-2-one], for which, in the assay with E. coli 25922, the “MIC for E. coli 25922” value is 0.25 µg/mL. Moreover, the “MIC for P. aeruginosa 27853” value against P. aeruginosa 27853 turned out to be 1 µg/mL.

A word on the MIC: it is the lowest concentration found to suppress growth.
